Data published in patent US7351857B2, “Methods of using substituted tetralins and indanes” (Janssen Pharmaceutica N.V., priority 2002, dated 2008).

Legend:
[1] = target: T1, PPARγ (Homo sapiens, UniProt P37231); experiment: aP2 assay for PPAR gamma agonists (bDNA aP2 mRNA in preadipocytes); assay type: cell-based; settings: unbracketed values; PPARγ standard FI = 70.3
T1 construct: Following the challenge of the preadipocytes, cells may be lysed with lysis buffer; endogenous in cells; host or cells: preadipocytes
T1 sequence (P37231 1-505): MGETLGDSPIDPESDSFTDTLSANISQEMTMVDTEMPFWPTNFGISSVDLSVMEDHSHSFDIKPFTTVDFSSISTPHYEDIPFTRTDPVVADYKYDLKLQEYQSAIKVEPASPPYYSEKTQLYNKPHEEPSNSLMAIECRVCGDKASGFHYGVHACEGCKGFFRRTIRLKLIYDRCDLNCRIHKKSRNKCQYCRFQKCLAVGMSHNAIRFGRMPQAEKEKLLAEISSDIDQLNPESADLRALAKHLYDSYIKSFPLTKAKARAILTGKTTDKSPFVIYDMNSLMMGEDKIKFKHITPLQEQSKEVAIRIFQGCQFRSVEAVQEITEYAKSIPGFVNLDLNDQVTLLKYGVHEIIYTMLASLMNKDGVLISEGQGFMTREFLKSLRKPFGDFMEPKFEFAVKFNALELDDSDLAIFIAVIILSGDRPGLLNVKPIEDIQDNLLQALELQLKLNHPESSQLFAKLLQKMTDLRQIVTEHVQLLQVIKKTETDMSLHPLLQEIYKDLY
Experimental: The procedure is described in detail in Burris et al., Molecular Endocrinology, 1999, 13:410, which is hereby incorporated by reference in its entirety, and aP2 assay results of agonist intrinsic activity may be presented as fold increase over vehicle in induction of aP2 mRNA production.
Twenty-four hours after the initial seeding of the 96-well plates by hand (around 20,000/well), the differentiation assay may be initiated. Medium may be removed and replaced with 150 μl of differentiation medium containing vehicle (DMSO) or test compounds. Cells may be returned to incubator for 24 hours culture. At the termination of the challenge, medium may be removed and 100 ul of lysis buffer may be added to initiate the bDNA aP2 mRNA assay. The branched DNA assay may be performed according to the manufacturer's protocol (Bayer Diagnostics; Emeryville, Calif.). Result may be expressed as the fold increase of aP2 mRNA production activated over vehicle controls. EC50's and Emax may be determined by non-linear regression with a sigmoidal fit curve.
Following the challenge of the preadipocytes, cells may be lysed with lysis buffer (Bayer Diagnostics) containing the aP2 oligonucleotides. After a 15 minute incubation at 53° C. or 30 minutes at 37° C. incubator, 70 ul of the lysis buffer from each well may be added to a corresponding capture well (preincubated with 70 ul of blocking buffer (Bayer Diagnostics)). The capture plate may be incubated overnight at 53° C. in a plate incubator (Bayer Diagnostics). After this incubation, the bDNA and labeled probes may be annealed as directed by the manufacturer. Following a 30-minute incubation with the luminescent alkaline phosphatase substrate, dioxitane, the luminescence may be quantitated in a Dynex MLX microtiter plate luminometer. Oligonucleotide probes designed to anneal to the aP2 mRNA and function in the bDNA mRNA detection system are designed with ProbeDesigner software (Bayer Diagnostics). This software package analyzes a target sequence of interest with a series of algorithms in order to determine which regions of the sequence can perform as locations for capture, label, or spacer probe annealing. The sequences of the oligonucleotides are as follows: […]

[2] = target: T2, PPARδ (Homo sapiens, UniProt Q03181); experiment: Transfection assay for PPARδ receptors (PPAR-Gal4 / Gal4-luciferase reporter in HEK293 cells); assay type: cell-based; settings: for PPARδ FI (fold induction): unbracketed values, PPARδ standard FI = 36.1
T2 sequence (Q03181 171-441 limits assumed): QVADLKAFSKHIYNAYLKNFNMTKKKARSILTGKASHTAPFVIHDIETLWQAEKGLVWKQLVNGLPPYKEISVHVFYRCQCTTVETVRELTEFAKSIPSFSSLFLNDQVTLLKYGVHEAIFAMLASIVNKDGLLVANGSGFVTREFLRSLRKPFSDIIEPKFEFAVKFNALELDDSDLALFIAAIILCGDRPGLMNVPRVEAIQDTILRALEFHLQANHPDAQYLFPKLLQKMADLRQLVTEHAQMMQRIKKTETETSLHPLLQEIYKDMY
Experimental: HEK293 cells were grown in DMEM/F-12 Media supplemented with 10% FBS and glutamine (GIBCOBRL). The cells were co-transfected with DNA for PPAR-Gal4 receptor and Gal4-Luciferase Reporter using the DMRIE-C Reagent. On the following day, the DNA-containing medium were replaced with 5% Charcoal treated FBS growth medium. After six hours, cells were seeded in 96 well plate and incubated at 37° C. in CO2 incubator overnight. Cells were challenged by test compounds and incubated for 24 hours at 37° C. in 5% CO2 incubator. Luciferase activity was assayed using the Steady-Glo Luciferase Assay Kit from Promega. DMRIE-C Reagent was purchased from GIBCO Cat. No. 10459-014. OPTI-MEM I Reduced Serum Medium was purchased from GIBCO Cat. No. 31985. Steady-Glo Luciferase Assay Kit was obtained from Promega Part# E254B.

Compound	PPARγ FI (fold induction) [1]	PPARδ FI (fold induction) [2]	further results
CCN(C(=O)Nc1ccc(SC(F)(F)F)cc1)C1Cc2ccc(SC(C)(C)C(=O)O)cc2C1 (centres unmarked) [Example 4, 2-{2-[1-Ethyl-3-(4-trifluoromethylsulfanylphenyl)ureido]indan-5-ylsulfanyl}-2-methylpropionic acid]	3.7		
CCN(C(=O)Nc1ccc(N(C)C)cc1)C1Cc2ccc(SC(C)(C)C(=O)O)cc2C1 (centres unmarked) [Example 7, 2-{2-[3-(4-Dimethylaminophenyl)-1-ethylureido]indan-5-ylsulfanyl}-2-methylpropionic acid]		0.8	
CCCCCN(C(=O)Nc1ccc(C(C)C)cc1)C1Cc2ccc(SC(C)(C)C(=O)O)cc2C1 (centres unmarked) [Example 10, 2-{2-[3-(4-Isopropylphenyl)-1-(pentyl)ureido]indan-5-ylsulfanyl}-2-methylpropionic acid]	5.1		
CCCCCN(C(=O)Nc1ccc(C(C)(C)C)cc1)C1Cc2ccc(SC(C)(C)C(=O)O)cc2C1 (centres unmarked) [Example 11, 2-{2-[3-(4-tert-butylphenyl)-1-(pentyl)ureido]indan-5-ylsulfanyl}-2-methylpropionic acid]	6.1		
CCCCCN(C(=O)Nc1ccc(-c2ccccc2)cc1)C1Cc2ccc(SC(C)(C)C(=O)O)cc2C1 (centres unmarked) [Example 12, 2-[2-(3-Biphenyl-4-yl-1-pentylureido)indan-5-ylsulfanyl]-2-methylpropionic acid]	11		
CCCCCCN(C(=O)Nc1ccc(C(C)C)cc1)C1Cc2ccc(SC(C)(C)C(=O)O)cc2C1 (centres unmarked) [Example 13, 2-{2-[3-(4-Isopropylphenyl)-1-(hexyl)ureido]indan-5-ylsulfanyl}-2-methylpropionic acid]	1.2		
CCCCCCN(C(=O)Nc1ccc(SC(F)(F)F)cc1)C1Cc2ccc(SC(C)(C)C(=O)O)cc2C1 (centres unmarked) [Example 15, 2-Methyl-2-{2-[1-hexyl-3-(4-trifluoromethylsulfanylphenyl)ureido]indan-5-ylsulfanyl}propionic acid]		1.2	
CCCN(C(=O)Nc1ccc(OC(F)(F)F)cc1)C1Cc2ccc(SC(C)(C)C(=O)O)cc2C1 (centres unmarked) [Example 16, 2-Methyl-2-{2-[1-propyl-3-(4-trifluoromethoxyphenyl)ureido]indan-5-ylsulfanyl}propionic acid]	0.37		
CCCCN(C(=O)Nc1ccc(SC(F)(F)F)cc1)C1Cc2ccc(SC(C)(C)C(=O)O)cc2C1 (centres unmarked) [Example 17, 2-Methyl-2-{2-[1-butyl-3-(4-trifluoromethylsulfanylphenyl)ureido]indan-5-ylsulfanyl}propionic acid]	0.43		
CC(C)(Sc1ccc2c(c1)CC(NC(=O)Nc1ccc(OC(F)(F)F)cc1)C2)C(=O)O (centres unmarked) [Example 18, 2-Methyl-2-{2-[3-(4-trifluoromethoxyphenyl)ureido]indan-5-ylsulfanyl}propionic acid]	0.31		
C=CCCCN(C(=O)Nc1ccc(OC(F)(F)F)cc1)C1Cc2ccc(SC(C)(C)C(=O)O)cc2C1 (centres unmarked) [Example 19, 2-Methy-2-{2-[1-pent-4-enyl-3-(4-trifluoromethoxyphenyl)ureido]indan-5-ylsulfanyl}propionic acid]		1.4	
CC(C)CCN(C(=O)Nc1ccc(OC(F)(F)F)cc1)C1Cc2ccc(SC(C)(C)C(=O)O)cc2C1 (centres unmarked) [Example 20, 2-Methyl-2-{2-[1-(3-methylbutyl)-3-(4-trifluoromethoxyphenyl)ureido]indan-5-ylsulfanyl}-2-methylpropionic acid]	0.44		
CC(C)CCN(C(=O)Nc1ccc(C(C)C)cc1)C1Cc2ccc(SC(C)(C)C(=O)O)cc2C1 (centres unmarked) [Example 21, 2-{2-[3-(4-Isopropylphenyl)-1-(3-methylbutyl)ureido]indan-5-ylsulfanyl}-2-methylpropionic acid]	0.05		
CCN(C(=O)Nc1ccc(OC(F)(F)F)c(Br)c1)C1Cc2ccc(SC(C)(C)C(=O)O)cc2C1 (centres unmarked) [Example 25, 2-{2-[3-(3-Bromo-4-trifluoromethoxyphenyl)-1-ethylureido]indan-5-ylsulfanyl}-2-methylpropionic acid]		4.5	
CCN(C(=O)Nc1cccc(OC(F)(F)F)c1)C1Cc2ccc(SC(C)(C)C(=O)O)cc2C1 (centres unmarked) [Example 26, 2-{2-[1-Ethyl-3-(3-trifluoromethoxyphenyl)ureido]indan-5-ylsulfanyl}-2-methylpropionic acid]		2.1	
CC(C)(Sc1ccc2c(c1)CC(N(CCCC1CCCC1)C(=O)Nc1ccc(OC(F)(F)F)cc1)C2)C(=O)O (centres unmarked) [Example 28, 2-{2-[1-(3-Cyclopentylpropyl)-3-(4-trifluoromethoxyphenyl)ureido]indan-5-ylsulfanyl}-2-methylpropionic acid]		8.2	
CCCN(C(=O)Nc1ccc(OC)cc1)C1Cc2ccc(SC(C)(C)C(=O)O)cc2C1 (centres unmarked) [Example 32, 2-{2-[3-(4-Methoxyphenyl)-1-propylureido]indan-5-ylsulfanyl}-2-methylpropionic acid]		1.5	
CCCN(C(=O)Nc1cc(C)cc(C)c1)C1Cc2ccc(SC(C)(C)C(=O)O)cc2C1 (centres unmarked) [Example 33, 2-{2-[3-(3,5-Dimethylphenyl)-1-propylureido]indan-5-ylsulfanyl}-2-methylpropionic acid]		0.8	
CCCN(C(=O)Nc1ccc(C(F)(F)F)cc1)C1Cc2ccc(SC(C)(C)C(=O)O)cc2C1 (centres unmarked) [Example 35, 2-Methyl-2-{2-[1-propyl-3-(4-trifluoromethylphenyl)ureido]indan-5-ylsulfanyl}-propionic acid]		5.6	
CC(C)(Sc1ccc2c(c1)CC(N(CCCC1CCCC1)C(=O)Nc1ccccc1)C2)C(=O)O (centres unmarked) [Example 37, 2-{2-[1-(3-Cyclopentylpropyl)-3-phenylureido]indan-5-ylsulfanyl}-2-methylpropionic acid]		1.9	
CCCCCN(C(=O)Nc1ccc2ccccc2c1)C1Cc2ccc(SC(C)(C)C(=O)O)cc2C1 (centres unmarked) [Example 39, 2-Methyl-2-[2-(3-naphthalen-2-yl-1-pentylureido)indan-5-ylsulfanyl]propionic acid]		9.3	
CCCN(C(=O)Nc1ccc(OC(F)(F)F)cc1)C1CCc2ccc(SC(C)(C)C(=O)O)cc2C1 (centres unmarked) [Example 46, 2-Methyl-2-{7-[1-propyl-3-(4-trifluoromethoxyphenyl)ureido}-5,6,7,8-tetrahydronaphthalen-2-ylsulfanyl}propionic acid]		6.0	
CCN(C(=O)Nc1ccc(C(C)(C)C)cc1)C1CCc2cc(SC(C)(C)C(=O)O)c(OC)cc2C1 (centres unmarked) [Example 49, 2-{6-[3-(4-tert-Butylphenyl)1-ethylureido]-3-methoxy-5,6,7,8-tetrahydronaphthalen-2-ylsulfanyl}-2-methyl propionic acid]			EC50 ([2]; bracketed values): > 3 µM
